In PubChem BioAssay (NCI):
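The compound was tested at five concentrations on cells cultured in 96-well plates, with a 48-hour exposure period. GI50 = concentration required for 50% inhibition of growth. TGI marks complete inhibition of growth.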

Columns and labels:
Test in all cases: NCI-60 cell line screen, 48 h
786-0 renal = test system: 786-0 renal
A498 renal = test system: A498 renal
A549 NSCLC = test system: A549 NSCLC
ACHN renal = test system: ACHN renal
BT-549 breast = test system: BT-549 breast
CAKI-1 renal = test system: CAKI-1 renal
CCRF-CEM leukemia = test system: CCRF-CEM leukemia
COLO 205 colon = test system: COLO 205 colon
DU-145 prostate = test system: DU-145 prostate
EKVX NSCLC = test system: EKVX NSCLC
HCC-2998 colon = test system: HCC-2998 colon
HCT-116 colon = test system: HCT-116 colon
HCT-15 colon = test system: HCT-15 colon
HL-60(TB) leukemia = test system: HL-60(TB) leukemia
HOP-62 NSCLC = test system: HOP-62 NSCLC
HOP-92 NSCLC = test system: HOP-92 NSCLC
HS 578T breast = test system: HS 578T breast
HT29 colon = test system: HT29 colon
IGROV1 ovarian = test system: IGROV1 ovarian
K-562 leukemia = test system: K-562 leukemia
KM12 colon = test system: KM12 colon
LOX IMVI melanoma = test system: LOX IMVI melanoma
M14 melanoma = test system: M14 melanoma
MCF7 breast = test system: MCF7 breast
MDA-MB-231 breast = test system: MDA-MB-231 breast
MDA-MB-435 = test system: MDA-MB-435
MOLT-4 leukemia = test system: MOLT-4 leukemia
NCI-H226 lung = test system: NCI-H226 lung
NCI-H23 lung = test system: NCI-H23 lung
NCI-H460 lung = test system: NCI-H460 lung
NCI-H522 lung = test system: NCI-H522 lung
NCI/ADR-RES ovarian = test system: NCI/ADR-RES ovarian
OVCAR-3 ovarian = test system: OVCAR-3 ovarian
OVCAR-4 ovarian = test system: OVCAR-4 ovarian
OVCAR-5 ovarian = test system: OVCAR-5 ovarian
OVCAR-8 ovarian = test system: OVCAR-8 ovarian
PC-3 prostate = test system: PC-3 prostate
RPMI-8226 leukemia = test system: RPMI-8226 leukemia
RXF 393 renal = test system: RXF 393 renal
SF-268 CNS = test system: SF-268 CNS
SF-295 CNS = test system: SF-295 CNS
SF-539 CNS = test system: SF-539 CNS
SK-MEL-2 melanoma = test system: SK-MEL-2 melanoma
SK-MEL-28 melanoma = test system: SK-MEL-28 melanoma
SK-MEL-5 melanoma = test system: SK-MEL-5 melanoma
SK-OV-3 ovarian = test system: SK-OV-3 ovarian
SN12C renal = test system: SN12C renal
SNB-19 CNS = test system: SNB-19 CNS
SNB-75 CNS = test system: SNB-75 CNS
SR leukemia = test system: SR leukemia
SW-620 colon = test system: SW-620 colon
T-47D breast = test system: T-47D breast
TK-10 renal = test system: TK-10 renal
U251 CNS = test system: U251 CNS
UACC-257 melanoma = test system: UACC-257 melanoma
UACC-62 melanoma = test system: UACC-62 melanoma
UO-31 renal = test system: UO-31 renal

`Cc1c2cc[nH]c(=O)c2c(C)c2c1[nH]c1cc(OCCN3CCN(C)CC3)ccc12` showed a GI50 (786-0 renal) of 946 nM, a TGI (786-0 renal) of 5090 nM and a GI50 (A498 renal) of 1300 nM. The TGI (A498 renal) was 2940 nM, the GI50 (A549 NSCLC) was 452 nM and the TGI (A549 NSCLC) was 1960 nM. The GI50 (ACHN renal) was 473 nM, the TGI (ACHN renal) was 3830 nM and the GI50 (BT-549 breast) was 2710 nM. The TGI (BT-549 breast) was 11400 nM, the GI50 (CAKI-1 renal) was 2170 nM and the TGI (CAKI-1 renal) was 9550 nM. The GI50 (CCRF-CEM leukemia) was 1580 nM, the TGI (CCRF-CEM leukemia) was 8990 nM and the GI50 (COLO 205 colon) was 353 nM. It also gave a TGI (COLO 205 colon) of 2200 nM, a GI50 (DU-145 prostate) of 813 nM and a TGI (DU-145 prostate) of 8970 nM. It also gave a GI50 (EKVX NSCLC) of 1110 nM, a TGI (EKVX NSCLC) of 10300 nM and a GI50 (HCC-2998 colon) of 1260 nM. It also gave a TGI (HCC-2998 colon) of 7240 nM, a GI50 (HCT-116 colon) of 339 nM and a TGI (HCT-116 colon) of 2090 nM. The GI50 (HCT-15 colon) was 1880 nM, the TGI (HCT-15 colon) was 12000 nM and the GI50 (HL-60(TB) leukemia) was 1440 nM. It also gave a TGI (HL-60(TB) leukemia) of 4360 nM, a GI50 (HOP-62 NSCLC) of 469 nM and a TGI (HOP-62 NSCLC) of 3240 nM. The GI50 (HOP-92 NSCLC) was 798 nM, the TGI (HOP-92 NSCLC) was 5460 nM and the GI50 (HS 578T breast) was 2010 nM. The TGI (HS 578T breast) was 9230 nM, the GI50 (HT29 colon) was 432 nM and the TGI (HT29 colon) was 2030 nM. The GI50 (IGROV1 ovarian) was 799 nM, the TGI (IGROV1 ovarian) was 7590 nM and the GI50 (K-562 leukemia) was 949 nM. It also gave a TGI (K-562 leukemia) of 10700 nM, a GI50 (KM12 colon) of 1190 nM and a TGI (KM12 colon) of 5610 nM. For the same compound, the GI50 (LOX IMVI melanoma) was 484 nM, the TGI (LOX IMVI melanoma) was 1900 nM and the GI50 (M14 melanoma) was 1200 nM. For the same compound, the TGI (M14 melanoma) was 2940 nM, the GI50 (MCF7 breast) was 577 nM and the TGI (MCF7 breast) was 6730 nM. For the same compound, the GI50 (MDA-MB-231 breast) was 783 nM, the TGI (MDA-MB-231 breast) was 3190 nM and the GI50 (MDA-MB-435) was 1060 nM. For the same compound, the TGI (MDA-MB-435) was 2430 nM, the GI50 (MOLT-4 leukemia) was 456 nM and the TGI (MOLT-4 leukemia) was 5510 nM. For the same compound, the GI50 (NCI-H226 lung) was 503 nM, the TGI (NCI-H226 lung) was 2380 nM and the GI50 (NCI-H23 lung) was 833 nM. It also gave a TGI (NCI-H23 lung) of 3670 nM, a GI50 (NCI-H460 lung) of 418 nM and a TGI (NCI-H460 lung) of 1840 nM. It also gave a GI50 (NCI-H522 lung) of 718 nM, a TGI (NCI-H522 lung) of 2760 nM and a GI50 (NCI/ADR-RES ovarian) of 3370 nM. The TGI (NCI/ADR-RES ovarian) was 16300 nM, the GI50 (OVCAR-3 ovarian) was 1240 nM and the TGI (OVCAR-3 ovarian) was 7700 nM. The GI50 (OVCAR-4 ovarian) was 1170 nM, the TGI (OVCAR-4 ovarian) was 4820 nM and the GI50 (OVCAR-5 ovarian) was 944 nM. For the same compound, the TGI (OVCAR-5 ovarian) was 11600 nM, the GI50 (OVCAR-8 ovarian) was 457 nM and the TGI (OVCAR-8 ovarian) was 6080 nM. For the same compound, the GI50 (PC-3 prostate) was 1030 nM, the TGI (PC-3 prostate) was 7480 nM and the GI50 (RPMI-8226 leukemia) was 1630 nM. It also gave a TGI (RPMI-8226 leukemia) of 5000 nM, a GI50 (RXF 393 renal) of 1210 nM and a TGI (RXF 393 renal) of 2720 nM. The GI50 (SF-268 CNS) was 740 nM, the TGI (SF-268 CNS) was 7970 nM and the GI50 (SF-295 CNS) was 788 nM. The TGI (SF-295 CNS) was 7760 nM, the GI50 (SF-539 CNS) was 1310 nM and the TGI (SF-539 CNS) was 2770 nM. It also gave a GI50 (SK-MEL-2 melanoma) of 1520 nM, a TGI (SK-MEL-2 melanoma) of 3430 nM and a GI50 (SK-MEL-28 melanoma) of 1500 nM. The TGI (SK-MEL-28 melanoma) was 2980 nM, the GI50 (SK-MEL-5 melanoma) was 1180 nM and the TGI (SK-MEL-5 melanoma) was 2440 nM. It also gave a GI50 (SK-OV-3 ovarian) of 614 nM, a TGI (SK-OV-3 ovarian) of 5900 nM and a GI50 (SN12C renal) of 389 nM. For the same compound, the TGI (SN12C renal) was 3310 nM, the GI50 (SNB-19 CNS) was 946 nM and the TGI (SNB-19 CNS) was 11200 nM. The GI50 (SNB-75 CNS) was 1230 nM, the TGI (SNB-75 CNS) was 6810 nM and the GI50 (SR leukemia) was 314 nM. It also gave a TGI (SR leukemia) of 12000 nM, a GI50 (SW-620 colon) of 381 nM and a TGI (SW-620 colon) of 2480 nM. The GI50 (T-47D breast) was 782 nM, the TGI (T-47D breast) was 15200 nM and the GI50 (TK-10 renal) was 2730 nM. For the same compound, the TGI (TK-10 renal) was 13700 nM, the GI50 (U251 CNS) was 953 nM and the TGI (U251 CNS) was 6660 nM. The GI50 (UACC-257 melanoma) was 2510 nM, the TGI (UACC-257 melanoma) was 7720 nM and the GI50 (UACC-62 melanoma) was 1130 nM. The TGI (UACC-62 melanoma) was 2900 nM, the GI50 (UO-31 renal) was 1060 nM and the TGI (UO-31 renal) was 3090 nM.
